Laboratory results from article doi:10.1101/2023.10.01.560353v1 (bioRxiv, 2023).
Converted amounts (≈) assume the structure as drawn. Peptide text beside a SMILES is read from it.

tested on: 11 clinically relevant bacterial pathogens; experiment: MIC over the panel of pathogens; type: cell-based; details: Table S17; lowest MIC over the strains tested

Compound | MIC (lowest MIC value obtained in the antimicrobial activity assays) [mM]
CC[C@H](C)[C@H](NC(=O)[C@H](CCCCN)NC(=O)[C@@H](NC(=O)[C@H](Cc1c[nH]c2ccccc12)NC(=O)[C@@H](N)CCCCN)[C@@H](C)O)C(=O)N[C@@H](Cc1ccc(O)cc1)C(=O)N[C@@H](CC(C)C)C(=O)N1CCC[C@H]1C(=O)N[C@@H](CC(C)C)C(=O)N[C@@H](CC(C)C)C(=O)N[C@@H](CC(C)C)C(=O)N1CCC[C@H]1C(=O)N[C@@H](CC(C)C)C(=O)O [Bisonin-2] (H-KWTKIYLPLLLPL-OH) | 8000 (≈ 12800 mg/mL)
CC[C@H](C)[C@H](NC(=O)[C@H](CCCCN)NC(=O)[C@H](CC(C)C)NC(=O)[C@H](Cc1c[nH]cn1)NC(=O)[C@@H](N)CC(C)C)C(=O)N[C@@H](CC(C)C)C(=O)N[C@@H](CCCCN)C(=O)N[C@H](C(=O)N[C@H](C(=O)N[C@@H](CCCNC(=N)N)C(=O)N[C@@H](CC(C)C)C(=O)N[C@@H](CC(C)C)C(=O)O)[C@@H](C)CC)[C@@H](C)CC [Elephasin-1] (H-LHLKILKIIRLL-OH) | 4000 (≈ 5890 mg/mL)
CC(C)C[C@H](NC(=O)[C@H](CC(C)C)NC(=O)[C@@H](NC(=O)[C@H](CCCNC(=N)N)NC(=O)[C@H](C)NC(=O)[C@H](Cc1ccccc1)NC(=O)[C@H](CCCNC(=N)N)NC(=O)[C@H](CO)NC(=O)[C@H](Cc1c[nH]c2ccccc12)NC(=O)[C@H](CCCNC(=N)N)NC(=O)[C@H](CC(C)C)NC(=O)[C@H](CCCCN)NC(=O)[C@H](CC(C)C)NC(=O)[C@@H](N)Cc1ccccc1)C(C)C)C(=O)O [Equusin-1] (H-FLKLRWSRFARVLL-OH) | 1000 (≈ 1810 mg/mL)
CC[C@H](C)[C@H](NC(=O)[C@H](Cc1ccc(O)cc1)NC(=O)[C@H](C)NC(=O)[C@@H](N)CCCNC(=N)N)C(=O)N[C@@H](CS)C(=O)N[C@@H](CCCNC(=N)N)C(=O)N[C@@H](CCCCN)C(=O)N[C@@H](CCCCN)C(=O)N[C@@H](Cc1ccccc1)C(=O)N[C@@H](CC(C)C)C(=O)N[C@@H](CO)C(=O)N[C@@H](CC(C)C)C(=O)N[C@@H](CCCNC(=N)N)C(=O)N[C@@H](CCCCN)C(=O)N[C@@H](C)C(=O)N[C@@H](CO)C(=O)N[C@H](C(=O)N[C@@H](CCCCN)C(=O)N[C@@H](CC(C)C)C(=O)N[C@@H](CCC(N)=O)C(=O)N[C@@H](CO)C(=O)N[C@@H](CC(C)C)C(=O)N[C@H](C(=O)N[C@@H](CCCNC(=N)N)C(=O)N[C@@H](CCSC)C(=O)N[C@@H](CCCCN)C(=O)O)C(C)C)[C@@H](C)CC [Equusin-2] (H-RAYICRKKFLSLRKASIKLQSLVRMK-OH) | 8000 (≈ 25100 mg/mL)
CC[C@H](C)[C@H](NC(=O)[C@H](CC(C)C)NC(=O)[C@H](CCCNC(=N)N)NC(=O)[C@H](Cc1c[nH]c2ccccc12)NC(=O)[C@H](CC(C)C)NC(=O)[C@@H](NC(=O)[C@H](CCCNC(=N)N)NC(=O)[C@H](CCC(N)=O)NC(=O)[C@H](Cc1ccc(O)cc1)NC(=O)[C@H](CC(C)C)NC(=O)[C@@H](N)CCCCN)[C@@H](C)CC)C(=O)N[C@@H](CO)C(=O)N[C@@H](CCC(=O)O)C(=O)N[C@@H](CC(C)C)C(=O)O [Equusin-3] (H-KLYQRILWRLISEL-OH) | 4000 (≈ 7320 mg/mL)
CC[C@H](C)[C@H](NC(=O)[C@H](CCCNC(=N)N)NC(=O)[C@H](Cc1c[nH]cn1)NC(=O)[C@H](CCCCN)NC(=O)[C@@H](NC(=O)CNC(=O)[C@H](CCCNC(=N)N)NC(=O)[C@H](C)NC(=O)[C@H](CCCCN)NC(=O)[C@@H](NC(=O)[C@H](C)NC(=O)[C@@H]1CCCN1C(=O)[C@H](CC(C)C)NC(=O)[C@H](CCC(N)=O)NC(=O)[C@H](CO)NC(=O)[C@H](Cc1ccccc1)NC(=O)[C@H](CC(C)C)NC(=O)[C@H](CC(C)C)NC(=O)[C@@H](NC(=O)[C@@H](N)CS)C(C)C)C(C)C)[C@@H](C)O)C(=O)N[C@@H](CCCCN)C(=O)N[C@@H](Cc1c[nH]c2ccccc12)C(=O)N[C@@H](CC(N)=O)C(=O)N[C@@H](CCCNC(=N)N)C(=O)N[C@@H](CCCCN)C(=O)O [Equusin-4] (H-CVLLFSQLPAVKARGTKHRIKWNRK-OH) | 16000 (≈ 47200 mg/mL)
CC[C@H](C)[C@H](NC(=O)[C@H](Cc1c[nH]cn1)NC(=O)[C@@H](N)CC(C)C)C(=O)NCC(=O)N[C@@H](CC(C)C)C(=O)N[C@H](C(=O)N[C@@H](CCCCN)C(=O)N[C@H](C(=O)N[C@@H](Cc1ccc(O)cc1)C(=O)N[C@@H](CC(C)C)C(=O)NCC(=O)N[C@@H](CO)C(=O)N[C@@H](Cc1ccccc1)C(=O)N[C@@H](C)C(=O)N[C@@H](CC(C)C)C(=O)O)[C@@H](C)O)[C@@H](C)CC [Eudyptin-1] (H-LHIGLIKTYLGSFAL-OH) | 64000 (≈ 105000 mg/mL)
CC[C@H](C)[C@H](NC(=O)[C@@H](NC(=O)[C@H](Cc1c[nH]c2ccccc12)NC(=O)[C@H](CCCCN)NC(=O)[C@@H](N)CCCCN)C(C)C)C(=O)N[C@@H](CCCCN)C(=O)N[C@@H](CO)C(=O)N[C@H](C(=O)N[C@H](C(=O)N[C@@H](Cc1ccccc1)C(=O)N[C@@H](Cc1ccccc1)C(=O)N[C@@H](CCCCN)C(=O)O)C(C)C)C(C)C [Hesperelin-2] (H-KKWVIKSVVFFK-OH) | 8000 (≈ 12100 mg/mL)
CC[C@H](C)[C@H](NC(=O)CNC(=O)[C@H](Cc1c[nH]cn1)NC(=O)[C@H](CC(N)=O)NC(=O)[C@H](CCCCN)NC(=O)[C@H](CCC(N)=O)NC(=O)[C@@H](N)CCCNC(=N)N)C(=O)N[C@@H](Cc1c[nH]cn1)C(=O)N[C@@H](Cc1ccccc1)C(=O)N[C@@H](CCCNC(=N)N)C(=O)N[C@H](C(=O)N[C@@H](CC(C)C)C(=O)N[C@@H](C)C(=O)N[C@@H](CCCCN)C(=O)N[C@@H](C)C(=O)N[C@@H](CC(C)C)C(=O)N[C@@H](CCCNC(=N)N)C(=O)O)C(C)C [Hesperelin-3] (H-RQKNHGIHFRVLAKALR-OH) | 64000 (≈ 131000 mg/mL)
CC[C@H](C)[C@H](N)C(=O)N[C@H](C(=O)NCC(=O)N[C@@H](CC(N)=O)C(=O)N[C@H](C(=O)N[C@@H](Cc1ccccc1)C(=O)NCC(=O)N[C@@H](Cc1ccccc1)C(=O)N[C@@H](CCCCN)C(=O)N[C@@H](C)C(=O)N[C@@H](CC(C)C)C(=O)N[C@@H](CCCNC(=N)N)C(=O)N[C@@H](C)C(=O)N[C@@H](CC(C)C)C(=O)N[C@@H](CCCNC(=N)N)C(=O)N[C@@H](CC(C)C)C(=O)O)C(C)C)C(C)C [Hesperelin-4] (H-IVGNVFGFKALRALRL-OH) | 64000 (≈ 114000 mg/mL)
CC[C@H](C)[C@H](N)C(=O)N[C@@H](Cc1ccccc1)C(=O)N[C@@H](CC(C)C)C(=O)N[C@@H](Cc1c[nH]cn1)C(=O)N[C@@H](CC(C)C)C(=O)N[C@@H](CCCCN)C(=O)N[C@H](C(=O)N[C@@H](CC(C)C)C(=O)N[C@@H](CCCCN)C(=O)N[C@H](C(=O)N[C@H](C(=O)N[C@@H](Cc1c[nH]cn1)C(=O)N[C@@H](CC(C)C)C(=O)N[C@@H](CC(C)C)C(=O)O)[C@@H](C)CC)[C@@H](C)CC)[C@@H](C)O [Mammuthusin-1] (H-IFLHLKTLKIIHLL-OH) | 4000 (≈ 6810 mg/mL)
CC[C@H](C)[C@H](NC(=O)[C@H](CCCCN)NC(=O)[C@H](CC(C)C)NC(=O)[C@@H](NC(=O)[C@@H](N)CCCCN)[C@@H](C)O)C(=O)N[C@H](C(=O)N[C@@H](CCCNC(=N)N)C(=O)N[C@@H](CC(C)C)C(=O)N[C@@H](CC(C)C)C(=O)N[C@@H](Cc1ccccc1)C(=O)O)[C@@H](C)CC [Mammuthusin-3] (H-KTLKIIRLLF-OH) | 16000 (≈ 19900 mg/mL)
CC[C@H](C)[C@H](NC(=O)[C@H](Cc1ccccc1)NC(=O)[C@@H](N)CC(C)C)C(=O)NCC(=O)N[C@@H](CC(C)C)C(=O)N[C@H](C(=O)N[C@@H](CC(N)=O)C(=O)N[C@@H](CC(C)C)C(=O)N[C@@H](CC(C)C)C(=O)NCC(=O)N[C@@H](CC(C)C)C(=O)N[C@@H](CC(C)C)C(=O)O)[C@@H](C)O [Mammuthusin-4] (H-LFIGLTNLLGLL-OH) | 2000 (≈ 2570 mg/mL)
CC[C@H](C)[C@H](NC(=O)[C@@H]1CCCN1C(=O)[C@H](CC(N)=O)NC(=O)[C@@H]1CCCN1C(=O)[C@@H]1CCCN1C(=O)[C@H](CCCCN)NC(=O)[C@@H](N)CCCCN)C(=O)N[C@@H](CCCCN)C(=O)N1CCC[C@H]1C(=O)N[C@@H](CCCCN)C(=O)N[C@H](C(=O)N1CCC[C@H]1C(=O)N[C@@H](CC(C)C)C(=O)N[C@@H](CO)C(=O)N[C@@H](C)C(=O)N1CCC[C@H]1C(=O)N[C@@H](CCCNC(=N)N)C(=O)N[C@@H](CCCCN)C(=O)N[C@@H](CO)C(=O)N1CCC[C@H]1C(=O)N[C@@H](CC(N)=O)C(=O)N[C@H](C(=O)N[C@H](C(=O)N[C@@H](CCCCN)C(=O)N[C@@H](Cc1ccc(O)cc1)C(=O)N[C@@H](CCCNC(=N)N)C(=O)N[C@@H](CC(C)C)C(=O)N[C@@H](CCCCN)C(=O)N[C@@H](Cc1ccccc1)C(=O)N[C@@H](CCCNC(=N)N)C(=O)O)C(C)C)[C@@H](C)O)C(C)C [Mammuthusin-5] (H-KKPPNPIKPKVPLSAPRKSPNTVKYRLKFR-OH) | 32000 (≈ 112000 mg/mL)
CC[C@H](C)[C@H](NC(=O)[C@@H](NC(=O)[C@H](CCSC)NC(=O)[C@@H](N)Cc1c[nH]c2ccccc12)[C@@H](C)O)C(=O)N[C@@H](Cc1c[nH]cn1)C(=O)N[C@@H](C)C(=O)N[C@@H](CC(C)C)C(=O)N[C@@H](CCCCN)C(=O)N[C@@H](CC(C)C)C(=O)N[C@@H](CO)C(=O)N[C@@H](CC(C)C)C(=O)N[C@@H](CO)C(=O)N[C@@H](Cc1ccccc1)C(=O)N[C@@H](CCCCN)C(=O)N[C@@H](CC(C)C)C(=O)O [Mammutin-1] (H-WMTIHALKLSLSFKL-OH) | 2000 (≈ 3580 mg/mL)
CC[C@H](C)[C@H](NC(=O)[C@H](CCCCN)NC(=O)[C@H](CO)NC(=O)[C@H](CC(N)=O)NC(=O)[C@H](Cc1ccccc1)NC(=O)[C@H](Cc1c[nH]cn1)NC(=O)[C@H](Cc1ccccc1)NC(=O)[C@@H](N)Cc1c[nH]c2ccccc12)C(=O)N[C@@H](CC(C)C)C(=O)N[C@@H](CC(C)C)C(=O)N[C@@H](CC(C)C)C(=O)N[C@H](C(=O)NCC(=O)N[C@@H](CC(C)C)C(=O)O)[C@@H](C)O [Mylodonin-1] (H-WFHFNSKILLLTGL-OH) | 8000 (≈ 13500 mg/mL)
